Test results taken from ChEMBL document CHEMBL1201862, “PubChem BioAssay data set” (2004).
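Five concentrations, 48 hours, 96-well plates. The concentration for 50% growth inhibition is given as GI50.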 Calls of active or inactive are those of the source. No stated cut-off is given here; in the data, active = GI50 up to about 1.1 µM and inactive = higher.

Experiments:
Experiment in all cases: growth of human tumour cells (NCI), 48 h
[1] = test system: HCC 2998
[2] = test system: OVCAR-3
[3] = test system: NCI-H460
[4] = test system: KM12
[5] = test system: TK-10
[6] = test system: UO-31
[7] = test system: K562
[8] = test system: HOP-92
[9] = test system: RPMI-8226
[10] = test system: Malme-3M
[11] = test system: RXF 393
[12] = test system: SK-MEL-2
[13] = test system: SF-295
[14] = test system: SNB-75
[15] = test system: A498
[16] = test system: SK-MEL-5
[17] = test system: MDA-MB-231
[18] = test system: A549
[19] = test system: NCI-H522
[20] = test system: DLD-1

Compound | GI50 [1] | GI50 [2] | GI50 [3] | GI50 [4] | GI50 [5] | GI50 [6] | GI50 [7] | GI50 [8] | GI50 [9] | GI50 [10] | GI50 [11] | GI50 [12] | GI50 [13] | GI50 [14] | GI50 [15] | GI50 [16] | GI50 [17] | GI50 [18] | GI50 [19] | GI50 [20]
CCCCCCCSc1nc2c(C(=O)OCC)ncn2c2ccccc12 | > 100 µM (inactive) | > 100 µM (inactive) | > 100 µM (inactive) | > 100 µM (inactive) | > 100 µM (inactive) | > 100 µM (inactive) | > 100 µM (inactive) | 25.1 µM (inactive) | > 100 µM (inactive) | > 100 µM (inactive) | > 100 µM (inactive) | > 100 µM (inactive) | 91.8 µM (inactive) |  |  |  |  |  |  | 
Cc1ccc(/N=N/C(=N\NC(=O)c2ccc(C)cc2)c2ccc(N(CCC#N)CCC#N)cc2C)cc1 | 50.2 µM (inactive) | 26.2 µM (inactive) | 23.8 µM (inactive) | 12.2 µM (inactive) | 45.5 µM (inactive) | > 100 µM (inactive) | 35.9 µM (inactive) | 51.3 µM (inactive) | 13 µM (inactive) |  | 44.8 µM (inactive) | 20.5 µM (inactive) | 38.4 µM (inactive) | 35.5 µM (inactive) | > 100 µM (inactive) | 4.69 µM (inactive) | 57.9 µM (inactive) | 34.5 µM (inactive) |  | 
O=C(O)CN(CC(=O)O)C(C(=O)O)c1ccccc1 (stereo unspecified) | > 100 µM (inactive) | > 100 µM (inactive) | > 100 µM (inactive) | > 100 µM (inactive) | > 100 µM (inactive) | > 100 µM (inactive) | > 100 µM (inactive) | > 100 µM (inactive) | > 100 µM (inactive) | > 100 µM (inactive) | > 100 µM (inactive) | > 100 µM (inactive) | > 100 µM (inactive) | > 100 µM (inactive) | > 100 µM (inactive) | > 100 µM (inactive) | > 100 µM (inactive) | > 100 µM (inactive) | > 100 µM (inactive) | 
O=C1c2ccccc2C(=O)N1/N=C1/SC(=N\c2ccccc2)/C(=N/c2ccccc2)N1c1ccccc1 | > 48.5 µM (inactive) | > 100 µM (inactive) | > 61.8 µM (inactive) | > 38.8 µM (inactive) | > 58.5 µM (inactive) | 25.7 µM (inactive) | > 60 µM (inactive) | > 27.9 µM (inactive) | > 21.1 µM (inactive) | > 47.3 µM (inactive) | 4.47 µM (inactive) | > 55.2 µM (inactive) | 26.4 µM (inactive) | 19.9 µM (inactive) | 19.7 µM (inactive) | > 39 µM (inactive) | > 10 µM (inactive) | > 21 µM (inactive) | 97.7 µM (inactive) | 
Cn1cc(NC(=O)[C@H]2CCC(N)=N2)cc1C(=O)NCCC(=N)N | > 100 µM (inactive) | > 100 µM (inactive) | > 100 µM (inactive) | > 100 µM (inactive) | > 100 µM (inactive) | > 100 µM (inactive) | > 100 µM (inactive) | > 100 µM (inactive) | > 100 µM (inactive) | > 100 µM (inactive) | > 100 µM (inactive) | > 100 µM (inactive) | > 100 µM (inactive) | > 100 µM (inactive) |  |  |  | > 100 µM (inactive) | > 100 µM (inactive) | > 100 µM (inactive)
Cc1ccc(NC(=O)C(Cc2c[nH]c3ccccc23)NC(=O)Oc2ccccc2)cc1C (stereo unspecified) |  | 34.8 µM (inactive) | 39.4 µM (inactive) | 23.8 µM (inactive) | 0.728 µM (active) | 77.6 µM (inactive) | 59 µM (inactive) | 27.7 µM (inactive) | 26.7 µM (inactive) | 14.3 µM (inactive) | 25.2 µM (inactive) | 85.9 µM (inactive) | > 100 µM (inactive) |  | 27.4 µM (inactive) | 44.1 µM (inactive) | > 100 µM (inactive) | 66.4 µM (inactive) | > 100 µM (inactive) | 
Fc1ccc2c(c1)SC1=Nc3sc4cc(F)ccc4[n+]3CN12 | 10.5 µM (inactive) | 14.3 µM (inactive) | 25.5 µM (inactive) |  | 18.8 µM (inactive) | 19.1 µM (inactive) | 14.3 µM (inactive) | 17.1 µM (inactive) | 0.437 µM (active) | 18.7 µM (inactive) | 26.5 µM (inactive) | 21.4 µM (inactive) | 32.1 µM (inactive) | 15.9 µM (inactive) | 12.7 µM (inactive) | 11.1 µM (inactive) | 13.9 µM (inactive) | 12.4 µM (inactive) | 12.1 µM (inactive) | 
CCO[C@]12C[C@H](OC)[C@@]3(O)CC(C1[C@H]3O)C13C4C2[C@H](OC)C1[C@](COC)(CN4CC)[C@H](O)C[C@@H]3OC (stereo partly specified) | > 100 µM (inactive) |  | > 100 µM (inactive) |  | > 100 µM (inactive) | > 100 µM (inactive) | > 100 µM (inactive) |  | > 100 µM (inactive) |  | > 100 µM (inactive) |  |  | > 10 µM (inactive) |  | > 100 µM (inactive) |  | > 100 µM (inactive) |  | > 100 µM (inactive)
